Measurements reported in US9758524B2, “4-imidazopyridazin-1-yl-benzamides as Btk inhibitors” (Merck Sharp & Dohme B.V., priority 2011, dated 2017).
pEC50: −log10 of the molar value. Like-named read-outs stand apart in the source and are kept apart here.

What was measured:
FynT enzyme = FynT enzyme (Homo sapiens (Human), UniProt P06241); experiment: FynT enzyme activity (IMAP fluorescence polarization assay); assay type: biochemical; details: 60 min pre-incubation, 0.2 μM ATP
In short: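 Human FynT pre-incubated with compounds 60 min at room temperature, then reacted 2 h at room temperature with fluorescein-labelled p34cdc2 peptide (100 nM final). Stopped with IMAP binding solution; fluorescence polarization read after 60 min. Activity as % of ±ATP control difference; EC50 by curve fitting.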

Btk enzyme (His-Btk) = Btk enzyme (His-Btk) (Homo sapiens (Human), UniProt Q06187); experiment: Btk enzyme activity (IMAP fluorescence polarization assay); details: for EC50 Btk activity values / EC50: IMAP, 60 min pre-incubation, 5 μM ATP; for EC50: read-out: EC50 Btk activity values
Method: Inhibition of kinase activity can be measured using the Immobilized Metal Assay for Phosphochemicals (IMAP) assay. IMAP is a homogeneous fluorescence polarization (FP) assay based on affinity capture of phosphorylated peptide substrates. IMAP uses fluorescein-labeled peptide substrates that, upon phosphorylation by a protein kinase, bind to so-called IMAP nanoparticles, which are derivatized with trivalent metal complexes.
Final peptide substrate concentration in assay is 50 nM.

Lck enzyme = Lck enzyme (Homo sapiens (Human), UniProt P06239); experiment: Lck enzyme activity (IMAP fluorescence polarization assay); details: for EC50: read-out: EC50 Lck activity values; for EC50 / EC50 Lck activity values: IMAP, 60 min pre-incubation, 6 μM ATP, bin bound in μM
Src enzyme = Src enzyme (Homo sapiens (Human), UniProt P12931); experiment: Src enzyme activity (IMAP fluorescence polarization assay); details: read-out: EC50 Src activity values; IMAP, 60 min pre-incubation, 4 μM ATP
Lyn enzyme = Lyn enzyme (Homo sapiens (Human), UniProt P07948); experiment: Lyn enzyme activity (IMAP fluorescence polarization assay)
[1] = read-out: EC50 Lyn activity values, 60 min pre-incubation, 2 μM ATP, bin bound in μM

Btk enzyme (His-Btk), sequence (Q06187 whole entry): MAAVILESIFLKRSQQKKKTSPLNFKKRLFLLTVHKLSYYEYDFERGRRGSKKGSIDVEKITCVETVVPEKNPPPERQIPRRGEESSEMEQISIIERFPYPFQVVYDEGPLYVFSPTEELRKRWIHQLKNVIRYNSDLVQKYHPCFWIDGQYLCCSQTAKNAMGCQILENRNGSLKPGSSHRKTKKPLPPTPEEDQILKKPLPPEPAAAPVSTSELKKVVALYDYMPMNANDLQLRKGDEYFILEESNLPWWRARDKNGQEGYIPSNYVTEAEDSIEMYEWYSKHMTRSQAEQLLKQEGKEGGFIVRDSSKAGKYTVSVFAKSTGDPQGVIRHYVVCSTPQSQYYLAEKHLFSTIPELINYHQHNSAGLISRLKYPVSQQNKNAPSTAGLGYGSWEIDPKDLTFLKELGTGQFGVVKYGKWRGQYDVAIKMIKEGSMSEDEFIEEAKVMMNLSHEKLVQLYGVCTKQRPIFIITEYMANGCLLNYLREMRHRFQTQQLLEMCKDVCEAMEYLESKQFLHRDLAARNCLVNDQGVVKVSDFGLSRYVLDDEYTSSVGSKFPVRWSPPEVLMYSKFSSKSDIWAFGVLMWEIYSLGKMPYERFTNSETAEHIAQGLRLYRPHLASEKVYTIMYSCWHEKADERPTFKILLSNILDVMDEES
FynT enzyme, sequence (P06241 other isoform, or with tags, fused parts or gaps): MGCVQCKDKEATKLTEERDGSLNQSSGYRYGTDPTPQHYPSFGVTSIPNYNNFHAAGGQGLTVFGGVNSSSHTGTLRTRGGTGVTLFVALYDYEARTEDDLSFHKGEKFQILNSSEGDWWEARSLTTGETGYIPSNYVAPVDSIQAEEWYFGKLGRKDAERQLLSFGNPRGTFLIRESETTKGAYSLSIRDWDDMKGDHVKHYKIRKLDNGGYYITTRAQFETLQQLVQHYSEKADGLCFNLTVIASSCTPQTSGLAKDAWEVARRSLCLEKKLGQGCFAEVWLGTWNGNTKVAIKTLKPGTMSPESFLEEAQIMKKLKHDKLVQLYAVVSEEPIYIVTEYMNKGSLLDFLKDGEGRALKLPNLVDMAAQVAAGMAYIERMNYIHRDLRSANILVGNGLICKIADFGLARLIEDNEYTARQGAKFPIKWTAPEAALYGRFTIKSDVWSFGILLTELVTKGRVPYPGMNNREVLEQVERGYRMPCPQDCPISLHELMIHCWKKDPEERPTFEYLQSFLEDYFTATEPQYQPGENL
Lck enzyme, sequence (P06239 whole entry): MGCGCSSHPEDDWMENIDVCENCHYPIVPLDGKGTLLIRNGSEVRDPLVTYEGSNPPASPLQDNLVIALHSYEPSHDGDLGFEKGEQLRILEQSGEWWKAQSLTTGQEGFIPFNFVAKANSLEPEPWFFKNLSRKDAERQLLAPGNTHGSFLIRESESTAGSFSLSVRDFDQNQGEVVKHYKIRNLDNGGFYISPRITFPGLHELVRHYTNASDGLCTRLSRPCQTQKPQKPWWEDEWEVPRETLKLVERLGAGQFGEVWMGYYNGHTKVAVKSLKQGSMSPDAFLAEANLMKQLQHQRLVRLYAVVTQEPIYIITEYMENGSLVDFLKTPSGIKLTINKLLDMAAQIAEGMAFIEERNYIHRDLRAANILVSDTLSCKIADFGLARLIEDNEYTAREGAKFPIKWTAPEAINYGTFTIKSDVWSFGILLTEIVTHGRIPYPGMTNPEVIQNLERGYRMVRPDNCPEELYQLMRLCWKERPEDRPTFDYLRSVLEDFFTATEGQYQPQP
Src enzyme, sequence (P12931 whole entry, looked up): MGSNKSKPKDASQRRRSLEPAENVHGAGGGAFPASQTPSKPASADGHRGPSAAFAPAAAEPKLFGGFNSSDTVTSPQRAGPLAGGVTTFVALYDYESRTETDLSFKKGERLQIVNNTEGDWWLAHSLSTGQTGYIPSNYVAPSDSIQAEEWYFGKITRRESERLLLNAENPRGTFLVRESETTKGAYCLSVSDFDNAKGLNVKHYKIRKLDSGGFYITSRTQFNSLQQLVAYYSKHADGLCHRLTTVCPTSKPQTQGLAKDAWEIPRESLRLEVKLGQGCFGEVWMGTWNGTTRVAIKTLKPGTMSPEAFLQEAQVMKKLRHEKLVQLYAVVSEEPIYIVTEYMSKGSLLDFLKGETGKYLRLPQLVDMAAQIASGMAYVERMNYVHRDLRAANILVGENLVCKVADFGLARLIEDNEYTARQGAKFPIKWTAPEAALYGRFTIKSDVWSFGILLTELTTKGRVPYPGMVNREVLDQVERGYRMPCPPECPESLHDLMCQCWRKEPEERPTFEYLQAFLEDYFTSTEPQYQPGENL
Lyn enzyme, sequence (P07948 whole entry): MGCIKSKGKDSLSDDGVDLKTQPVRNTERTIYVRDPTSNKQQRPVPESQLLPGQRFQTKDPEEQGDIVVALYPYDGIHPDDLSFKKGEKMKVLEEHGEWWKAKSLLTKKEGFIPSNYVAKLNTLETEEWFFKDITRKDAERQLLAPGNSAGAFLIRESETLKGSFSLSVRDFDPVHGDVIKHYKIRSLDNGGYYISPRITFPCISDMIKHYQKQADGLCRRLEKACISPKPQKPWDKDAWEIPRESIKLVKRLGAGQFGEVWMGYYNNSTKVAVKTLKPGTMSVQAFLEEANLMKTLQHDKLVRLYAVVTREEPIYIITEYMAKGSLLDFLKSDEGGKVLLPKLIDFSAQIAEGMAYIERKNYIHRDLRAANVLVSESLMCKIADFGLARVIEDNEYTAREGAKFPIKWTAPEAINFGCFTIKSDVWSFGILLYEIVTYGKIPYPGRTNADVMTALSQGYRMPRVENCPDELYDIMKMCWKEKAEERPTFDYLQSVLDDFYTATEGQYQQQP

| Structure (SMILES) | pEC50 (FynT enzyme) | pEC50 (Btk enzyme (His-Btk)) | EC50 Btk activity values (Btk enzyme (His-Btk); bin bound in μM) [µM] | EC50 (Lck enzyme) [µM] | pEC50 (Src enzyme) | EC50 (Lyn enzyme; [1]) [µM] | EC50 Btk activity values (Btk enzyme (His-Btk); bin bound in nM) [µM] | EC50 (Btk enzyme (His-Btk); bin bound in μM) [µM] | EC50 (Btk enzyme (His-Btk); bin bound in nM) [µM] | EC50 (Lyn enzyme; EC50 Lyn activity values, 60 min pre-incubation, 2 μM ATP, bin bound in μM) [µM] | pEC50 (Lck enzyme) | EC50 Lck activity values (Lck enzyme) [µM] | EC50 Lyn activity values (Lyn enzyme; 60 min pre-incubation, 2 μM ATP, bin bound in μM) [µM] | EC50 (Lyn enzyme; EC50 Lyn activity values, 60 min pre-incubation, 2 μM ATP, bin bound in nM) [µM] |
| --- | --- | --- | --- | --- | --- | --- | --- | --- | --- | --- | --- | --- | --- | --- |
| COC/C=C/C(=O)N1CCCC[C@H]1c1nc(-c2ccc(C(=O)Nc3ccccn3)cc2C)c2c(N)nccn12 [Example 85, 4-(8-amino-3-((S)-1-((E)-4-methoxybut-2-enoyl)piperidin-2-yl)imidazo[1,5-a]pyrazin-1-yl)-3-methyl-N-(pyridin-2-yl)benzamide] | ≤ 6.00 | 6.00 to 7.00 | <1 | ≥ 1 | ≤ 6.00 | ≥ 1 |  |  |  |  |  |  |  |  |
| COC/C=C/C(=O)N1CCC[C@H]1c1nc(-c2ccc(C(=O)Nc3cc(C(C)C)ccn3)cc2)c2c(N)nccn12 [Example 58, (S,E)-4-(8-amino-3-(1-(4-methoxybut-2-enoyl)pyrrolidin-2-yl)imidazo[1,5-a]pyrazin-1-yl)-N-(4-isopropylpyridin-2-yl)benzamide] | ≤ 6.00 | 7.00 to 8.00 |  | ≥ 1 | ≤ 6.00 | ≥ 1 | <0.1 |  |  |  |  |  |  |  |
| C=C(C)C(=O)N1CCC[C@H]1c1nc(-c2ccc(C(=O)Nc3ccccn3)cc2)c2c(N)nccn12 [Example 91, (S)-4-(8-amino-3-(1-methacryloylpyrrolidin-2-yl)imidazo[1,5-a]pyrazin-1-yl)-N-(pyridin-2-yl)benzamide] | ≤ 6.00 |  |  | ≥ 1 | ≤ 6.00 | ≥ 1 |  | ≥ 1 |  |  |  |  |  |  |
| C=CC(=O)N1CCCC[C@H]1c1nc(-c2ccc(C(=O)Nc3cc(C(F)(F)F)ccn3)cc2)c2c(N)nccn12 [Example 109, (S)-4-(3-(1-acryloylpiperidin-2-yl)-8-aminoimidazo[1,5-a]pyrazin-1-yl)-N-(4-(trifluoromethyl)pyridin-2-yl)benzamide] | ≤ 6.00 |  |  | ≥ 1 | ≤ 6.00 | ≥ 1 |  |  | < 0.01 |  |  |  |  |  |
| COC/C=C/C(=O)N1CCCC[C@H]1c1nc(-c2ccc(C(=O)Nc3ncccn3)cc2)c2c(N)nccn12 [Example 55, (S,E)-4-(8-amino-3-(1-(4-methoxybut-2-enoyl)piperidin-2-yl)imidazo[1,5-a]pyrazin-1-yl)-N-(pyrimidin-2-yl)benzamide] | ≤ 6.00 | 6.00 to 7.00 | <1 | ≥ 1 | ≤ 6.00 | ≥ 1 |  |  |  |  |  |  |  |  |
| CC#CC(=O)N1CCCC[C@H]1c1nc(-c2ccc(C(=O)Nc3ccccn3)cc2C)c2c(N)nccn12 [Example 28, 4-(8-Amino-3-((S)-1-but-2-ynoylpiperidin-2-yl)imidazo[1,5-a]pyrazin-1-yl)-3-methyl-N-(pyridin-2-yl)benzamide] | ≤ 6.00 |  |  | ≥ 1 | ≤ 6.00 | ≥ 1 |  |  | < 0.01 |  |  |  |  |  |
| C=CC(=O)N1CCC[C@H]1c1nc(-c2ccc(C(=O)Nc3cc(N4CCCC4)ccn3)cc2)c2c(N)nccn12 [Example 43, (S)-4-(3-(1-acryloylpyrrolidin-2-yl)-8-aminoimidazo[1,5-a]pyrazin-1-yl)-N-(4-(pyrrolidin-1-yl)pyridin-2-yl)benzamide] | ≤ 6.00 |  |  | ≥ 1 | ≤ 6.00 | ≥ 1 |  |  | < 0.01 |  |  |  |  |  |
| CC#CC(=O)N1CCC[C@H]1c1nc(-c2ccc(C(=O)Nc3ccccn3)c(F)c2)c2c(N)nccn12 [Example 50, (S)-4-(8-amino-3-(1-but-2-ynoylpyrrolidin-2-yl)imidazo[1,5-a]pyrazin-1-yl)-2-fluoro-N-(pyridin-2-yl)benzamide] | ≤ 6.00 | 7.00 to 8.00 |  | ≥ 1 | ≤ 6.00 | ≥ 1 | <0.1 |  |  |  |  |  |  |  |
| COC/C=C/C(=O)N1CCCC[C@H]1c1nc(-c2ccc(C(=O)Nc3cc(C(F)(F)F)ccn3)cc2)c2c(N)nccn12 [Example 108, (S,E)-4-(8-amino-3-(1-(4-methoxybut-2-enoyl)piperidin-2-yl)imidazo[1,5-a]pyrazin-1-yl)-N-(4-(trifluoromethyl)pyridin-2-yl)benzamide] | ≤ 6.00 |  |  | ≥ 1 | ≤ 6.00 |  |  |  | < 0.01 | ≥ 1 |  |  |  |  |
| COc1cc(-c2nc([C@@H]3CCCN3C(=O)c3ccnc(Cl)n3)n3ccnc(N)c23)ccc1C(=O)Nc1ccccn1 [Example 83, (S)-4-(8-amino-3-(1-(2-chloropyrimidine-4-carbonyl)pyrrolidin-2-yl)imidazo[1,5-a]pyrazin-1-yl)-2-methoxy-N-(pyridin-2-yl)benzamide] | ≤ 6.00 | 7.00 to 8.00 |  | ≥ 1 | ≤ 6.00 | ≥ 1 | <0.1 |  |  |  |  |  |  |  |
| CC#CC(=O)N1CCC[C@H]1c1nc(-c2ccc(C(=O)Nc3cc(OC)ccn3)cc2)c2c(N)nccn12 [Example 123, (S)-4-(8-amino-3-(1-but-2-ynoylpyrrolidin-2-yl)imidazo[1,5-a]pyrazin-1-yl)-N-(4-methoxypyridin-2-yl)benzamide] | ≤ 6.00 |  |  | ≥ 1 | ≤ 6.00 | ≥ 1 |  |  | < 0.01 |  |  |  |  |  |
| CCCc1ccnc(NC(=O)c2ccc(-c3nc([C@@H]4CCCCN4C(=O)/C=C/COC)n4ccnc(N)c34)cc2F)c1 [Example 114, (S,E)-4-(8-amino-3-(1-(4-methoxybut-2-enoyl)piperidin-2-yl)imidazo[1,5-a]pyrazin-1-yl)-2-fluoro-N-(4-propylpyridin-2-yl)benzamide] | ≤ 6.00 | 7.00 to 8.00 |  | ≥ 1 | ≤ 6.00 | ≥ 1 | <0.1 |  |  |  |  |  |  |  |
| COC/C=C/C(=O)N1CCCC[C@H]1c1nc(-c2ccc(C(=O)Nc3nccc(C)n3)cc2)c2c(N)nccn12 [Example 88, (S,E)-4-(8-amino-3-(1-(4-methoxybut-2-enoyl)piperidin-2-yl)imidazo[1,5-a]pyrazin-1-yl)-N-(4-methylpyrimidin-2-yl)benzamide] | ≤ 6.00 | 6.00 to 7.00 | <1 | ≥ 1 | ≤ 6.00 | ≥ 1 |  |  |  |  |  |  |  |  |
| CC#CC(=O)N1CCCC[C@H]1c1nc(-c2ccc(C(=O)Nc3cc(CCC)ccn3)cc2)c2c(N)nccn12 [Example 64, (S)-4-(8-amino-3-(1-but-2-ynoylpiperidin-2-yl)imidazo[1,5-a]pyrazin-1-yl)-N-(4-propylpyridin-2-yl)benzamide] | ≤ 6.00 |  |  |  | ≤ 6.00 | ≥ 1 |  |  | < 0.01 |  | 6.00 to 7.00 | <1 |  |  |
| CC#CC(=O)N1CCC[C@H]1c1nc(-c2ccc(C(=O)Nc3cc(CC)ccn3)cc2)c2c(N)nccn12 [Example 131, (S)-4-(8-amino-3-(1-but-2-ynoylpyrrolidin-2-yl)imidazo[1,5-a]pyrazin-1-yl)-N-(4-ethylpyridin-2-yl)benzamide] | ≤ 6.00 |  |  | ≥ 1 | ≤ 6.00 | ≥ 1 |  |  | < 0.01 |  |  |  |  |  |
| C=CC(=O)N1CCC[C@H]1c1nc(-c2ccc(C(=O)Nc3cc(C(F)(F)F)ccn3)cc2)c2c(N)nccn12 [Example 62, (S)-4-(3-(1-acryloylpyrrolidin-2-yl)-8-aminoimidazo[1,5-a]pyrazin-1-yl)-N-(4-(trifluoromethyl)pyridin-2-yl)benzamide] | ≤ 6.00 |  |  |  | ≤ 6.00 | ≥ 1 |  |  | < 0.01 |  | 6.00 to 7.00 | <1 |  |  |
| C=CC(=O)N1CCC[C@H]1c1nc(-c2ccc(C(=O)Nc3cc(CCC)ccn3)cc2)c2c(N)nccn12 [Example 125, (S)-4-(3-(1-acryloylpyrrolidin-2-yl)-8-aminoimidazo[1,5-a]pyrazin-1-yl)-N-(4-propylpyridin-2-yl)benzamide] | ≤ 6.00 |  |  |  | ≤ 6.00 |  |  |  | < 0.01 |  | 6.00 to 7.00 | <1 | <1 | 0.1 to 1 |
| C=CC(=O)N1CCCC[C@H]1c1nc(-c2ccc(C(=O)Nc3cc(CCC)ccn3)c(F)c2)c2c(N)nccn12 [Example 26, (S)-4-(3-(1-Acryloylpiperidin-2-yl)-8-aminoimidazo[1,5-a]pyrazin-1-yl)-2-fluoro-N-(4-propylpyridin-2-yl)benzamide] | ≤ 6.00 |  |  | ≥ 1 | ≤ 6.00 | ≥ 1 |  |  | < 0.01 |  |  |  |  |  |
| Nc1nccn2c([C@@H]3CCCCN3C(=O)c3ccnc(Cl)n3)nc(-c3ccc(C(=O)Nc4cc(C(F)(F)F)ccn4)cc3)c12 [Example 115, (S)-4-(8-amino-3-(1-(2-chloropyrimidine-4-carbonyl)piperidin-2-yl)imidazo[1,5-a]pyrazin-1-yl)-N-(4-(trifluoromethyl)pyridin-2-yl)benzamide] | ≤ 6.00 |  |  | ≥ 1 | ≤ 6.00 | ≥ 1 |  |  | < 0.01 |  |  |  |  |  |
